Assay results taken from patent US20160158245A1, “PHARMACEUTICAL FORMULATION CONTAINING THIENOTRIAZOLODIAZEPINE COMPOUNDS” (ONCOETHIX GmbH, priority 2013, published 2016).

Key:
Type in all cases: cell-based
BV-173 = experiment: MTT assay; settings: Homo sapiens; BV-173, MTT at 72 h
Experimental: (§1) Different representative cell lines for ALL including Jurkat cells (T-ALL), RS 4-11 (MLL-AF4 B-precursor ALL), TO′M-1, BV173 (both Ph+ALL) and AML including K562 (Ph+CML in blast crisis,), HL-60 (NRAS driven AML2), NOMO1 (MLL-AF9 driven AML), KG1 (BMP-FGRF+AML6) and its more immature subtype KG1a were cultured in RPMI 1640 (Gibco Invitrogen, Basel, Switzerland) supplemented with 10% or 20% heat-inactivated fetal calf serum respectively, 2 mM L-glutamine, 100 IU/mL penicillin, and 100 µg/mL streptomycin.
(§2) MTT-assay: cells were seeded first into 24-well plates at the density of […] per well to avoid variations of concentrations in smaller volumes and treated with different doses of OTX015 prepared freshly from 1 mM stock solution in DMSO. Cells were transferred to 96-well plates for MTT-assay. Untreated cells and cells treated with equal amounts of DMSO (0.2-1%) used for dilution of OTX015 were used as controls. The 3-(4,5-dimethylthiazol-2-yl)-2,5-diphenyltetrazolium bromide (MTT) (Molecular Probes, Eugene, USA) was prepared as a stock of 5 mg/ml in PBS. 0.5 mg/mL of MTT solution was then added per well and incubated in the dark at 37° C. for 4 h. Cells were then lysed with 25% SDS lysis buffer and absorbance was read at 570 nm. Two independent experiments were run for each cell line. GI50 values were calculated with Prism v5 software (GraphPad Inc., La Jolla, USA).
(§3) AML and ALL cell lines were exposed to increasing concentrations of compound (1-1), (0.1 nM-10 μM). […] GI50 values were expressed as means from 3 independent experiments.

HL60 = experiment: MTT assay; settings: Homo sapiens, HL-60, HL60, MTT at 72 h
Experimental: as §1, §2, §3

Jurkat = experiment: MTT assay; settings: Homo sapiens, MTT at 72 h
Experimental: as §1, §2, §3

K562 = experiment: MTT assay; settings: Homo sapiens, K562, 72 h, K562, MTT at 72 h
Experimental: as §1, §2, §3

KG1a = experiment: MTT assay; settings: Homo sapiens, KG-1a, MTT at 72 h
Experimental: as §1, §2, §3

KG1 = experiment: MTT assay; settings: Homo sapiens, KG-1; KG1, MTT at 72 h
Experimental: as §1, §2, §3

NOMO1 = experiment: MTT assay; settings: Homo sapiens, NOMO-1; NOMO1, MTT at 72 h
Experimental: as §1, §2, §3

RS4-11 = experiment: MTT assay; settings: Homo sapiens; RS4-11, MTT at 72 h
Experimental: as §1, §2, §3

TOM-1 = experiment: MTT assay; settings: TOM-1, MTT at 72 h
Experimental: as §1, §2, §3

[1] = test system: CD34+ and CD34− AML cells; experiment: Apoptosis in primary cells; settings: CD34+ and CD34− cells of one AML patient, 24 hours
Experimental: (§4) a total of 1×10^6 cellsderived from patients or cell lines were resuspended in 1 mL culture medium and incubated with the indicated dosages of OTX015 prepared freshly from 1 mM stock solution in DMSO. Control cells were incubated with the corresponding amount of dimethyl sulfoxide (DMSO 0.2-1%) to exclude toxicity of the excipient. Apoptotic cells were detected by cytofluorometric analysis using a FACScan (Becton Dickinson, Mountain View, USA). Cells were stained with propidium iodide (PI; 5 μg/mL; Becton Dickinson) and concomitantly for 15 minutes at RT with annexin-V-FITC (Becton Dickinson) according to the manufacturer's instructions to determine outer membrane phosphatidyl serine exposure. Data were analyzed with the Flowjo (Tree Star Inc., Ashland, USA) flow cytometry software.
(§5) The efficacy of Compound (1-1) to induce apoptosis in primary cells was investigated. CD34+ and CD34− cells were obtained by positive selection with CD34+ microbeads from cord blood (healthy controls) and one AML patient.

CD34+ cord blood cells = experiment: Apoptosis in primary cells; settings: CD34+ cord blood cells of healthy controls, 500 nM, 24 hours
Experimental: as §4, §5

CD34− cord blood cells = experiment: Apoptosis in primary cells; settings: CD34− cord blood cells of healthy controls, 24 hours
Experimental: as §4, §5

BRD4, BRD2 and BRD3 = experiment: RQ-PCR of BRD4, BRD2 and BRD3 in leukemia cell lines; settings: 250 nM and 500 nM, 48 h
Experimental: The total RNA obtained after extraction with TRIZOL (Invitrogen, Grand Island, USA) were titrated to 1 μg/uL and stored at −80° C. The complementary DNA (cDNA) was synthesized from 1 μg RNA. The RQ-PCR reactions (BRD2, BRD3, BRD4, c-MYC and ABL) were performed in a volume of 25 ul from a tenth of the cDNA (equivalent to 100 ng of RNA) on a thermocycler ABI7900HT in standard mode (1 cycle of 2 minutes at 50° C.-10 minutes at 95° C. followed by 50 cycles of 15 seconds at 95° C.-1 minute at 60° C.).

[2] = test system: BRD4, BRD3 and c-MYC in HL60; experiment: Immunoblot (protein level) in HL60; settings: HL60, 500 nM
Experimental: (§6) FIGS. 43A-43L illustrate effects of OTX015 at the protein level for BRD 4, BRD2 and BRD 3 as well as c-MYC. […] AML cell lines HL60, K562 (FIGS. 43A-43C; FIG. 43D-43F) and ALL cell lines Jurkat and RS4-11 (FIG. 43G-43I; FIG. 4JD-43L) were treated with OTX015 at 500 nM and compared to controls exposed to according DMSO. At indicated time-points proteins were extracted and immunoblotted with BRD4, BRD3, BRD2 or c-MYC antibodies after gel electrophoresis. […] One representative experiment out of three is shown.
(§7) The membranes were blocked with LiCor blocking buffer (LiCor, Lincoln, Nebr., USA) and incubated with the respective primary antibody: anti-BRD4 (Epitomics 5716-1, Burlingame, USA), anti-BRD3 (ab56342, AbCam, UK), anti-BRD2 (ab37633, AbCam, UK), anti c-MYC (sc-764 (N262), Santa Cruz, USA) and anti-GAPDH (Invitrogen 398600, Grand Island, USA). Blots were stained with either goat anti-rabbit InfraRedDye 680RD or goat anti-mouse InfraRedDye 800CWsecondary antibody (LiCor). Membranes were imaged using a LiCor Odyssey scanner. Boxes were manually placed around each band of interest, which returned near-infrared fluorescent values of raw intensity with intra-lane background subtracted using Odyssey 3.0 analytical software (LiCor).

[3] = test system: BRD4, BRD3 and c-MYC in RS4-11; experiment: Immunoblot (protein level) in RS4-11; settings: RS4-11, 500 nM
Experimental: as §6, §7

**Q.** With `Cc1sc2c(c1C)C(c1ccc(Cl)cc1)=N[C@@H](CC(=O)Nc1ccc(O)cc1)c1nnc(C)n1-2` [Compound (1-1), 2-[(6S)-4-(4-chlorophenyl)-2,3,9-trimethyl-6H-thienol[3,2-f]-[1,2,4]triazolo[4,3-a][1,4]diazepin-6-yl]-N-(4-hydroxyphenyl)acetamide dihydrate] as the compound, how does the GI50 (BV-173) read?
**A.** Its GI50 is 161 nM.

**Q.** What about the GI50 (HL60) of the same compound?
**A.** Its GI50 is 1310 nM.

**Q.** And the IC50 (HL60; read-out: GI value)?
**A.** Its IC50 is 1300 nM.

**Q.** And the GI50 (Jurkat)?
**A.** The GI50 was 250 nM.

**Q.** And the GI50 (K562)?
**A.** The GI50 was 11300 nM.

**Q.** And the GI50 (K562; mean of 3 independent experiments)?
**A.** The GI50 was 11300 nM.

**Q.** And the GI50 (KG1a)?
**A.** The GI50 was 1340 nM.

**Q.** What about the IC50 (KG1a; read-out: GI value) of the same compound?
**A.** Its IC50 is 1300 nM.

**Q.** And the GI50 (KG1)?
**A.** The GI50 was 198 nM.

**Q.** And the GI50 (NOMO1)?
**A.** Its GI50 is 229 nM.

**Q.** What about the GI50 (RS4-11) of the same compound?
**A.** The GI50 was 34.2 nM.

**Q.** And the GI50 (TOM-1)?
**A.** Its GI50 is 133 nM.

**Q.** And the “in vitro induction of apoptosis” value [1]?
**A.** Its value is “induction of apoptosis in a dose dependent manner”.

**Q.** And the “toxicity (apoptosis) for immature cord blood cells” value (CD34+ cord blood cells)?
**A.** The value was “toxicity for immature CD34+ cells at the 500 nM dose level”.

**Q.** What about the “toxicity (apoptosis) for mature cord blood compartment” value (CD34− cord blood cells) of the same compound?
**A.** Its value is “remained unaffected”.

**Q.** And the “down regulation of BRD4, BRD2 or BRD3 at the cDNA level” value (BRD4, BRD2 and BRD3)?
**A.** Its value is “not able to detect a consistent down regulation”.

**Q.** And the “upregulation of BRD3 and BRD2 at the cDNA level” value (BRD4, BRD2 and BRD3)?
**A.** Its value is “significant upregulation of BRD3 and BRD2 in KG1, K562 and Jurkat and increase of BRD2 in KG1 and HL60”.

**Q.** What about the c-MYC protein level ([2]; 24 h) of the same compound?
**A.** Its c-MYC protein level is “transient downregulation”.

**Q.** What about the “BRD4 and BRD3 protein level” value ([2]; 72 h) of the same compound?
**A.** The value was “remained unaffected”.

**Q.** And the “BRD4, BRD3 and c-MYC protein level” value [3]?
**A.** The value was “remained unaffected”.
